# Key:
# [1] = tested on: NQO1 mRNA in BEAS-2B cells; test: Beas2B NQO1 mRNA cell based assay; design: species or system human; settings: Homo sapiens, BEAS-2B, 24 h, 24 h compound treatment, increase in NQO1 mRNA vs vehicle (0.1% DMSO), read-out: EC50
# Summary of the method: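 BEAS-2B human bronchial epithelial cells exposed to compound for 24 h at 37 °C, 5% CO2. NQO1 mRNA measured by one-step TaqMan RT-qPCR on unpurified lysates, normalized to β-actin; relative expression by ΔΔCT method.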
# [2] = target: human KEAP1 (N-term, residues 321-609) (Homo sapiens, UniProt Q14145); test: biochemical;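 further: fluorescence polarization competition assay of Kelch domain binding to NRF2, 12-point 1:3 dilution series from 10 µM, read after 1 h at room temperature, floor 10 nM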
# Chain of human KEAP1 (N-term, residues 321-609) (Q14145 321-609): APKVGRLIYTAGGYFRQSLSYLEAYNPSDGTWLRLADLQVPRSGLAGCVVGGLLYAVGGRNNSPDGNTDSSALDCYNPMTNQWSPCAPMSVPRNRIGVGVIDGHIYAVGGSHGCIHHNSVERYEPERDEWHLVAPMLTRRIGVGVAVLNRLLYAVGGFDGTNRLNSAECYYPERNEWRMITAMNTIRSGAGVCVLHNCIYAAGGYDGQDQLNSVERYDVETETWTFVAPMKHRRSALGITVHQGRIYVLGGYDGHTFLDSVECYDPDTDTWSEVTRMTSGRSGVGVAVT
SMILES,EC50 [1],IC50 [2]
"Cc1nc(COc2ccc(Cl)c3c2[C@@H](CN2CCCC2=O)N(C(=O)[C@@H]2CCCC[C@]2(C)C(=O)O)CC3)no1 [Example 168, (1S,2R)-2-((S)-5-chloro-8-((5-methyl-1,2,4-oxadiazol-3-yl)methoxy)-1-((2-oxopyrrolidin-1-yl)methyl)-1,2,3,4-tetrahydroisoquinoline-2-carbonyl)-1-methylcyclohexane-1-carboxylic acid]",85 nM,8.5 nM
"Cn1nnc(COc2ccc(Cl)c3c2[C@@H](CN2CCCC2=O)N(C(=O)[C@H]2CCCC[C@]2(C)C(=O)O)CC3)c1C(F)(F)F [Example 169, (1S,2S)-2-((S)-5-chloro-8-((1-methyl-5-(trifluoromethyl)-1H-1,2,3-triazol-4-yl)methoxy)-1-((2-oxopyrrolidin-1-yl)methyl)-1,2,3,4-tetrahydroisoquinoline-2-carbonyl)-1-methylcyclohexane-1-carboxylic acid]",140 nM,62 nM
"C[C@]1(C(=O)O)CCCC[C@H]1C(=O)N1CCc2c(Cl)ccc(OCc3nnn4c3CCCC4)c2[C@H]1CN1CC2(CC2)CC1=O [Example 170, (1S,2R)-2-((S)-5-chloro-1-((6-oxo-5-azaspiro[2.4]heptan-5-yl)methyl)-8-((4,5,6,7-tetrahydro-[1,2,3]triazolo[1,5-a]pyridin-3-yl)methoxy)-1,2,3,4-tetrahydroisoquinoline-2-carbonyl)-1-methylcyclohexane-1-carboxylic acid]",0.11 nM,6.6 nM
"C[C@]1(C(=O)O)CCCC[C@H]1C(=O)N1CCc2c(Cl)ccc(OCc3cncnc3C(F)(F)F)c2[C@H]1CN1CC2(CC2)CC1=O [Example 171, (1S,2R)-2-((S)-5-chloro-1-((6-oxo-5-azaspiro[2.4]heptan-5-yl)methyl)-8-((4-(trifluoromethyl)pyrimidin-5-yl)methoxy)-1,2,3,4-tetrahydroisoquinoline-2-carbonyl)-1-methylcyclohexane-1-carboxylic acid]",19 nM,6.4 nM
"C[C@]1(C(=O)O)CCCC[C@H]1C(=O)N1CCc2c(Cl)ccc(OCc3nnn(C4CC4)c3C(F)F)c2[C@H]1CN1CC2(CC2)CC1=O [Example 172, (1S,2R)-2-((S)-5-chloro-8-((1-cyclopropyl-5-(difluoromethyl)-1H-1,2,3-triazol-4-yl)methoxy)-1-((6-oxo-5-azaspiro [2.4]heptan-5-yl)methyl)-1,2,3,4-tetrahydroisoquinoline-2-carbonyl)-1-methylcyclohexane-1-carboxylic acid]",1.1 nM,6 nM
"CN(C)CCn1cc(COc2ccc(Cl)c3c2[C@@H](CN2CC4(CC4)CC2=O)N(C(=O)[C@@H]2CCCC[C@]2(C)C(=O)O)CC3)nn1 [Example 173, (1S,2R)-2-((S)-5-chloro-8-((1-(2-(dimethylamino)ethyl)-1H-1,2,3-triazol-4-yl)methoxy)-1-((6-oxo-5-azaspiro[2.4]heptan-5-yl)methyl)-1,2,3,4-tetrahydroisoquinoline-2-carbonyl)-1-methylcyclohexane-1-carboxylic acid]",35 nM,6.5 nM
"Cc1ccc(OCc2nnn(C)c2C(F)(F)F)c2c1CCN(C(=O)[C@@H]1CCCC[C@]1(C)C(=O)O)[C@@H]2CN1CCCC1=O [Example 174, (1S,2R)-1-Methyl-2-((S)-5-methyl-8-((1-methyl-5-(trifluoromethyl)-1H-1,2,3-triazol-4-yl)methoxy)-1-((2-oxopyrrolidin-1-yl)methyl)-1,2,3,4-tetrahydroisoquinoline-2-carbonyl)cyclohexane-1-carboxylic acid]",6.6 nM,11 nM
"Cn1cnnc1COc1ccc(Cl)c2c1[C@@H](CN1CC3(CC3)CC1=O)N(C(=O)[C@@H]1CCCC[C@]1(C)C(=O)O)CC2 [Example 175, (1S,2R)-2-((S)-5-chloro-8-((4-methyl-4H-1,2,4-triazol-3-yl)methoxy)-1-((6-oxo-5-azaspiro [2.4]heptan-5-yl)methyl)-1,2,3,4-tetrahydroisoquinoline-2-carbonyl)-1-methylcyclohexane-1-carboxylic acid]",35 nM,14 nM
"C[C@]1(C(=O)O)CCCC[C@H]1C(=O)N1CCc2c(Cl)ccc(OCc3nnc4n3CCOC4)c2[C@H]1CN1CC2(CC2)CC1=O [Example 176, (1S,2R)-2-((S)-5-chloro-8-((5,6-dihydro-8H-[1,2,4]triazolo[3,4-c][1,4]oxazin-3-yl)methoxy)-1-((6-oxo-5-azaspiro [2.4]heptan-5-yl)methyl)-1,2,3,4-tetrahydroisoquinoline-2-carbonyl)-1-methylcyclohexane-1-carboxylic acid]",2.8 nM,6.2 nM
"Cc1nnc(COc2ccc(Cl)c3c2[C@@H](CN2CC4(CC4)CC2=O)N(C(=O)[C@@H]2CCCC[C@]2(C)C(=O)O)CC3)n1C1CC1 [Example 177, (1S,2R)-2-((S)-5-chloro-8-((4-cyclopropyl-5-methyl-4H-1,2,4-triazol-3-yl)methoxy)-1-((6-oxo-5-azaspiro[2.4]heptan-5-yl)methyl)-1,2,3,4-tetrahydroisoquinoline-2-carbonyl)-1-methylcyclohexane-1-carboxylic acid]",2.2 nM,5.3 nM
"Cn1nnc(COc2ccc(F)c3c2[C@@H](CN2CCCC2=O)N(C(=O)[C@@H]2CCCC[C@]2(C)C(=O)O)CC3)c1C(F)(F)F [Example 178, (1S,2R)-2-((S)-5-fluoro-8-((1-methyl-5-(trifluoromethyl)-1H-1,2,3-triazol-4-yl)methoxy)-1-((2-oxopyrrolidin-1-yl)methyl)-1,2,3,4-tetrahydroisoquinoline-2-carbonyl)-1-methylcyclohexane-1-carboxylic acid]",13 nM,6.4 nM
"Cc1nnc(COc2ccc(Cl)c3c2[C@@H](CN2CC4(CC4)CC2=O)N(C(=O)[C@@H]2CCCC[C@]2(C)C(=O)O)CC3)n1C [Example 179, (1S,2R)-2-((S)-5-chloro-8-((4,5-dimethyl-4H-1,2,4-triazol-3-yl)methoxy)-1-((6-oxo-5-azaspiro[2.4]heptan-5-yl)methyl)-1,2,3,4-tetrahydroisoquinoline-2-carbonyl)-1-methylcyclohexane-1-carboxylic acid]",4.1 nM,5.3 nM
"C[C@]1(C(=O)O)CCC[C@H]1C(=O)N1CCc2c(Cl)ccc(OCc3nnn4c3CCCC4)c2[C@H]1CN1CC2(CC2)CC1=O [Example 180, (1S,2R)-2-((S)-5-chloro-1-((6-oxo-5-azaspiro[2.4]heptan-5-yl)methyl)-8-((4,5,6,7-tetrahydro-[1,2,3]triazolo[1,5-a]pyridin-3-yl)methoxy)-1,2,3,4-tetrahydroisoquinoline-2-carbonyl)-1-methylcyclopentane-1-carboxylic acid]",1.1 nM,7.6 nM
"C[C@]1(C(=O)O)CCCC[C@H]1C(=O)N1CCc2c(Cl)ccc(OCc3nnn4c3CCC4)c2[C@H]1CN1CC2(CC2)CC1=O [Example 181, (1S,2R)-2-((S)-5-chloro-8-((5,6-dihydro-4H-pyrrolo[1,2-c][1,2,3]triazol-3-yl)methoxy)-1-((6-oxo-5-azaspiro [2.4]heptan-5-yl)methyl)-1,2,3,4-tetrahydroisoquinoline-2-carbonyl)-1-methylcyclohexane-1-carboxylic acid]",0.69 nM,5.1 nM
"C[C@]1(C(=O)O)CCCC[C@H]1C(=O)N1CCc2c(F)ccc(OCc3nnn4c3CCCC4)c2[C@H]1CN1CC2(CC2)CC1=O [Example 182, (1S,2R)-2-((S)-5-fluoro-1-((6-oxo-5-azaspiro[2.4]heptan-5-yl)methyl)-8-((4,5,6,7-tetrahydro-[1,2,3]triazolo[1,5-a]pyridin-3-yl)methoxy)-1,2,3,4-tetrahydroisoquinoline-2-carbonyl)-1-methylcyclohexane-1-carboxylic acid]",0.83 nM,5.1 nM
"C[C@]1(C(=O)O)CCCC[C@H]1C(=O)N1CCc2c(Cl)ccc(OCc3nnc4n3CCC4)c2[C@H]1CN1CC2(CC2)CC1=O [Example 183, (1S,2R)-2-((S)-5-chloro-8-((6,7-dihydro-5H-pyrrolo[2,1-c][1,2,4]triazol-3-yl)methoxy)-1-((6-oxo-5-azaspiro [2.4]heptan-5-yl)methyl)-1,2,3,4-tetrahydroisoquinoline-2-carbonyl)-1-methylcyclohexane-1-carboxylic acid]",5.8 nM,5.4 nM
"Cn1c(COc2ccc(Cl)c3c2[C@@H](CN2CC4(CC4)CC2=O)N(C(=O)[C@@H]2CCCC[C@]2(C)C(=O)O)CC3)nnc1C1CC1 [Example 184, (1S,2R)-2-((S)-5-chloro-8-((5-cyclopropyl-4-methyl-4H-1,2,4-triazol-3-yl)methoxy)-1-((6-oxo-5-azaspiro[2.4]heptan-5-yl)methyl)-1,2,3,4-tetrahydroisoquinoline-2-carbonyl)-1-methylcyclohexane-1-carboxylic acid]",5.6 nM,2.9 nM
"Cn1cnc(COc2ccc(Cl)c3c2[C@@H](CN2CC4(CC4)CC2=O)N(C(=O)[C@@H]2CCCC[C@]2(C)C(=O)O)CC3)c1 [Example 185, (1S,2R)-2-((S)-5-chloro-8-((1-methyl-1H-imidazol-4-yl)methoxy)-1-((6-oxo-5-azaspiro[2.4]heptan-5-yl)methyl)-1,2,3,4-tetrahydroisoquinoline-2-carbonyl)-1-methylcyclohexane-1-carboxylic acid]",56 nM,6.2 nM
"C[C@]1(C(=O)O)CCCC[C@H]1C(=O)N1CCc2c(Cl)ccc(OCc3nnc4n3CCCC4)c2[C@H]1CN1CC2(CC2)CC1=O [Example 186, (1S,2R)-2-((S)-5-chloro-1-((6-oxo-5-azaspiro[2.4]heptan-5-yl)methyl)-8-((5,6,7,8-tetrahydro-[1,2,4]triazolo[4,3-a]pyridin-3-yl)methoxy)-1,2,3,4-tetrahydroisoquinoline-2-carbonyl)-1-methylcyclohexane-1-carboxylic acid]",4.7 nM,5.6 nM
